Tests used:
[1] = test system: blackgrass; assay: Test B pre/postemergence blackgrass; assay type: in vivo, Alopecurus myosuroides
Method in brief: (§1)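 Herbicidal effect was estimated by eye on a ten-point control scale after plants spent twelve to sixteen days in a greenhouse following soil or foliar treatment. Foliar sprays targeted plants at one to four leaves; all doses were formulated in a non-phytotoxic solvent with surfactant.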

[2] = test system: giant foxtail; assay: Test B pre/postemergence giant foxtail; assay type: in vivo, Setaria faberii
Method in brief: as §1

[3] = test system: rape; assay: Test B pre/postemergence rape; assay type: in vivo, Brassica napus
Method in brief: as §1

[4] = test system: wheat; assay: Test B pre/postemergence wheat; assay type: in vivo, Triticum aestivum
Method in brief: as §1

[5] = test system: velvetleaf; assay: Test B pre/postemergence velvetleaf; assay type: in vivo, Abutilon theophrasti
Method in brief: as §1

[6] = test system: bedstraw; assay: Test B pre/postemergence bedstraw; assay type: in vivo, Galium aparine; conditions: Postemergence
Method in brief: as §1

[7] = test system: duck salad; assay: Test B flood test duck salad; assay type: in vivo, Heteranthera limosa
Method in brief: (§2)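 Read-out is a visual response score from 0 (no effect) to 10 (complete control), assigned by comparison with untreated controls. Treatment was applied at the 2-leaf stage, and plants stayed in the greenhouse for twelve to sixteen days before scoring.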

[8] = test system: wild oat; assay: Test B pre/postemergence wild oat; assay type: in vivo, Avena fatua
Method in brief: as §1

[9] = test system: surinam grass; assay: Test B pre/postemergence surinam grass; assay type: in vivo, Brachiaria decumbens
Method in brief: as §1

[10] = test system: sugar beet; assay: Test B pre/postemergence sugar beet; assay type: in vivo, Beta vulgaris
Method in brief: as §1

[11] = test system: rice; assay: Test B flood test rice; assay type: in vivo, Oryza sativa
Method in brief: as §2

[12] = test system: smallflower flatsedge; assay: Test B flood test smallflower flatsedge; assay type: in vivo, Cyperus difformis
Method in brief: as §2

[13] = test system: pigweed; assay: Test B pre/postemergence pigweed; assay type: in vivo, Amaranthus retroflexus
Method in brief: as §1

[14] = test system: crabgrass; assay: Test B pre/postemergence crabgrass; assay type: in vivo, Digitaria sanguinalis
Method in brief: as §1

[15] = test system: morningglory; assay: Test B pre/postemergence morningglory; assay type: in vivo, Ipomoea hederacea
Method in brief: as §1

[16] = test system: soybean; assay: Test B pre/postemergence soybean; assay type: in vivo, Glycine max
Method in brief: as §1

[17] = test system: purple nutsedge; assay: Test B pre/postemergence purple nutsedge; assay type: in vivo, Cyperus rotundus
Method in brief: as §1

[18] = test system: bamyardgrass; assay: Test B flood test barnyardgrass; assay type: in vivo, Echinochloa crus-galli
Method in brief: as §2

[19] = test system: cocklebur; assay: Test B pre/postemergence cocklebur; assay type: in vivo, Xanthium strumarium
Method in brief: as §1

[20] = test system: corn; assay: Test B pre/postemergence corn; assay type: in vivo, Zea mays
Method in brief: as §1

[21] = Postemergence, Rate 125 g/ha, scale 0 to 10, 0 is no effect, 10 is complete control
[22] = Postemergence, Rate 250 g/ha, scale 0 to 10
[23] = Postemergence, Rate 500 g/ha, scale 0 to 10, 0 is no effect, 10 is complete control
[24] = Preemergence, Rate 62 g/ha, scale of 0 to 10 where 0 is no effect and 10 is complete control
[25] = Preemergence, Rate 125 g/ha, scale 0 to 10, 0 is no effect, 10 is complete control
[26] = Preemergence, Rate 250 g/ha, scale 0 to 10, 0 is no effect, 10 is complete control
[27] = Preemergence, Rate 500 g/ha, scale 0 to 10, 0 is no effect, 10 is complete control
[28] = Rate 62 g/ha, Postemergence, scale 0 to 10, 0 no effect, 10 complete control
[29] = Rate 62 g/ha, flood test species, Pre-emergence, visual evaluation after twelve to sixteen days
[30] = Rate 125 g/ha, under heading Pre-emergence, flood test species, visual evaluation after twelve to sixteen days
[31] = Rate 250 g/ha, Pre-emergence (flood test species), scale 0 to 10, 0 is no effect, 10 is complete control
[32] = Rate 500 g/ha, Pre-emergence section of Table B, 0 to 10 scale (0 no effect, 10 complete control)

CC(C)N(C(=O)n1oc(=O)n(CC(=O)C2CC2)c1=O)c1ccc(F)cc1 [Compound 488]
3: Plant response rating, Wheat [4, 23] | Plant response rating, Wild oats [8, 24]
8: Blackgrass plant response rating [1, 21] | Blackgrass plant response rating [1, 22] | Plant response rating, Blackgrass [1, 23] | Blackgrass plant response rating [1, 25] | Blackgrass plant response rating [1, 26] | Giant foxtail plant response rating [2, 21] | Wild oats plant response rating [8, 25] | Crabgrass plant response rating [14, 22] | Plant response rating, Crabgrass [14, 24] | Plant response rating, Morningglory [15, 23]
0: Rape plant response rating [3, 21] | Plant response rating, Rape [3, 23] | Rape plant response rating [3, 28] | Wheat plant response rating [4, 21] | Plant response rating, Wheat [4, 24] | Wheat plant response rating [4, 25] | Wheat plant response rating [4, 28] | Velvetleaf plant response rating [5, 21] | Plant response rating, Velvetleaf [5, 24] | Velvetleaf plant response rating [5, 28] | Bedstraw plant response rating ([6]; Rate 62 g/ha, scale 0 to 10, 0 no effect, 10 complete control) | Plant response rating, Ducksalad (0 to 10 scale, 0 is no effect, 10 is complete control) [7, 29] | Ducksalad plant response rating (0 to 10 scale, 0 is no effect, 10 is complete control) [7, 30] | Ducksalad plant response rating [7, 31] | Ducksalad plant response rating [7, 32] | Wild oats plant response rating [8, 21] | Wild oats plant response rating [8, 28] | B. signalgrass plant response rating [9, 28] | Sugarbeets plant response rating [10, 21] | Plant response rating, Sugarbeets [10, 24] | Sugarbeets plant response rating [10, 28] | Plant response rating, Rice (0 to 10 scale, 0 is no effect, 10 is complete control) [11, 29] | Rice plant response rating (0 to 10 scale, 0 is no effect, 10 is complete control) [11, 30] | Rice plant response rating [11, 31] | Rice plant response rating [11, 32] | Plant response rating, S. Flatsedge (0 to 10 scale, 0 is no effect, 10 is complete control) [12, 29] | S. Flatsedge plant response rating (0 to 10 scale, 0 is no effect, 10 is complete control) [12, 30] | S. Flatsedge plant response rating [12, 31] | S. Flatsedge plant response rating [12, 32] | Redroot pigweed plant response rating [13, 21] | Redroot pigweed plant response rating [13, 28] | Plant response rating, Morningglory [15, 24] | Morningglory plant response rating [15, 25] | Morningglory plant response rating [15, 27] | Plant response rating, Soybean [16, 24] | Soybean plant response rating [16, 25] | Nutsedge plant response rating [17, 21] | Plant response rating, Nutsedge [17, 24] | Nutsedge plant response rating [17, 25] | Nutsedge plant response rating [17, 27] | Nutsedge plant response rating [17, 28] | Plant response rating, Barnyardgrass (0 to 10 scale, 0 is no effect, 10 is complete control) [18, 29] | Barnyardgrass plant response rating (0 to 10 scale, 0 is no effect, 10 is complete control) [18, 30] | Barnyardgrass plant response rating [18, 31] | Barnyardgrass plant response rating [18, 32] | Cocklebur plant response rating [19, 21] | Cocklebur plant response rating [19, 22] | Plant response rating, Cocklebur [19, 23] | Plant response rating, Cocklebur [19, 24] | Cocklebur plant response rating [19, 25] | Cocklebur plant response rating [19, 26] | Cocklebur plant response rating [19, 27] | Cocklebur plant response rating [19, 28] | Corn plant response rating [20, 21] | Corn plant response rating [20, 22] | Plant response rating, Corn [20, 23] | Plant response rating, Corn [20, 24] | Corn plant response rating [20, 25] | Corn plant response rating [20, 28]
7: Rape plant response rating [3, 25] | Plant response rating, B. signalgrass [9, 23] | B. signalgrass plant response rating [9, 25] | B. signalgrass plant response rating [9, 26] | Sugarbeets plant response rating [10, 27] | Crabgrass plant response rating [14, 21]
2: Velvetleaf plant response rating [5, 25] | Bedstraw plant response rating ([6]; Rate 125 g/ha, scale 0 to 10, 0 is no effect, 10 is complete control) | Plant response rating, Redroot pigweed [13, 23] | Morningglory plant response rating [15, 21] | Plant response rating, Nutsedge [17, 23]
10: Blackgrass plant response rating [1, 27] | Giant foxtail plant response rating [2, 25] | Giant foxtail plant response rating [2, 27] | Rape plant response rating [3, 27] | Wild oats plant response rating [8, 27] | B. signalgrass plant response rating [9, 27] | Redroot pigweed plant response rating [13, 25] | Redroot pigweed plant response rating [13, 27] | Crabgrass plant response rating [14, 25] | Crabgrass plant response rating [14, 27]
4: Bedstraw plant response rating ([6]; Rate 250 g/ha, scale 0 to 10) | B. signalgrass plant response rating [9, 21] | Plant response rating, B. signalgrass [9, 24] | Sugarbeets plant response rating [10, 25] | Plant response rating, Redroot pigweed [13, 24] | Soybean plant response rating [16, 21] | Soybean plant response rating [16, 28]
5: Plant response rating, Blackgrass [1, 24] | Giant foxtail plant response rating [2, 28] | Wheat plant response rating [4, 27] | Plant response rating, Wild oats [8, 23] | Plant response rating, Soybean [16, 23]
1: Blackgrass plant response rating [1, 28] | Plant response rating, Rape [3, 24] | Plant response rating, Velvetleaf [5, 23] | Plant response rating, Sugarbeets [10, 23] | Morningglory plant response rating [15, 28] | Soybean plant response rating [16, 27]
6: Velvetleaf plant response rating [5, 27] | B. signalgrass plant response rating ([9]; Postemergence, Rate 250 g/ha, scale 0 to 10, 0 no effect, 10 complete control) | Corn plant response rating [20, 27]
9: Plant response rating, Giant foxtail [2, 23] | Plant response rating, Giant foxtail [2, 24] | Plant response rating, Bedstraw ([6]; Rate 500 g/ha, scale 0 to 10, 0 is no effect, 10 is complete control) | Plant response rating, Crabgrass [14, 23]
